Measurements from patent publication US20230340012A1, “NATURAL AND SYNTHETIC COMPOUNDS FOR TREATING CANCER AND OTHER DISEASES” (PACIFIC ARROW LIMITED, priority 2009, published 2023).
Several values for one entry are separate records, joined by “and”; a condition that tells them apart may be missing. Equal values may be shown once.

How the values were obtained:
[1] = tested on: HepG2 cells; experiment: Combined effect of anti-DR5 and Tig-R in HepG2 cells, MTT; type: cell-based, human
Procedure: Cells Culture: HepG2 cells (liver cancer cells) were cultured in DMEM medium supplemented with 10% FBS, antibiotics (Pen Strep) and L-Glutamine. Cells were incubated in a 37° C., 5% CO2 incubator.
(§1) Antibody: Antibody against Human TRAIL R2/TNFRSF 10B, (from R&D Systems cat# MAB631-100).
Drug: Tig-R (5 and 7.5 ug/ml in culture medium).
Treatment. Cells in log-growth phase were used. Cells were plated in 96-welled plate with 10 K/well over night before treatment.
Antibodies are serially diluted with medium (started from 1 ug/ml) before adding to cell culture and incubated for 2 days.
For combination studies, Tig-R (5 ug/ml or 7.5 ug/ml) were added together with antibody. After a treatment for 2 days, the quantity of live cells is determined with MTT assay*. The percentage of cell growth with drugs was determined by comparing to those of no-drug (DMSO) control.
MTT assay. Cell growth activity was determined by MTT assay (Carmichael et al.,). […] The formation of formazan was dissolved with DMSO and the O.D. at 490 nm was measured by an ELISA reader. The MTT level of cells before drug-treatment was also measured (T0). The % cell-growth (%G) is calculated as: %G = (TD-T0 / TC-T0) × 100 (1) where TC or TD represent O.D. readings of control or drug-treated cells.
When T0 > TD, then the negative growth (cytotoxicity) is expressed as - % of the control and is calculated as: - %G = (TD-T0 / T0) × 100.

[2] = tested on: Capan cells (pancreas carcinoma); experiment: Agonist activity of anti-DR5 antibody with Tig-R in Capan cells, MTT; type: cell-based, human
Procedure: Capan cells (pancreas carcinoma) were cultured in RPMI1640 medium supplemented with 10% FBS, antibiotics (Pen Strep) and L-Glutamine. Cells were incubated in a 37° C., 5% CO2 incubator.
as §1
Treatment. Cells in log-growth phase were used. Cells were plated in 96-welled plate with 10 K/well 1-2 days before treatment.
Antibody are serially diluted with medium before adding to culture and incubated for 2 days.
After a treatment for 2 days, the quantity of live cells is then determined with MTT assay*. The percentage of cell growth with drugs was determined by comparing to the no-drug (DMSO) control.

[3] = tested on: DR5 (TNFRSF10B) in ES2 cells; experiment: Induction of DR5 in ES2 cells, Western blot; type: cell-based, human
Procedure: 1). Cells and drug-treatment: ES2 cells (Ovarian cancer cells) were cultured in RPMI1640 medium with 10% FBS, antibiotics (Pen Strep) and L-Glutamine in a 37° C., 5% CO2 incubator. Cells in log-growth phase were treated with Tig-R (10 ug/ml), or DMSO (as control) for 2 days.
(§2) 2). Total cell protein extraction: Drug-treated cells were collected, pelleted with centrifugation. The cell pellet was extracted with SDS-Sample buffer (containing PMSF and protease inhibitors cocktail). About 0.1 gram cell pellet was extracted in 1 ml of extraction buffer. The cell extract was then incubated in boiling water bath for 6 minutes with occasionally vortexing. The protein extract was immediately frozen in -80° C. before used.
3). SDS gel electrophoresis: 10-20 ug of protein sample was loaded into each lane of a 10% SDS gel. Electrophoresis was conducted with 100 volt constant for 2 hours.
(§3) 4). Western Blot: Separated proteins from SDS gel were transferred to a nitrocellulose membrane, which was blocked with 5% non-fat dry milk. The membrane was then exposed to 1st antibody (anti-TNFRSF10B) over night, then washed. The membrane was then incubated in 2nd antibody (anti-mouse-AP conjugated) for an hour, then washed. The immuno-bands were developed with BCIP/NBT substrate.
5. Another SDS gel with same protein loading was stained with Coomassie Brilliant Blue (CBB) for protein staining.
A. Cells and drug-treatment: HepG2 cells (liver cancer cells), CAPAN cells, ES2 cells (Ovary cell) were cultured in DMEM medium with 10% FBS, antibiotics (Pen Strep) and L-Glutamine in a 37° C., 5% CO2 incubator. Cells in log-growth phase were treated with Tig-R (10 ug/ml), Tig-S (4 ug/ml) or DMSO (as control) for 2 days.
as §2, with “B.” for “2).”
C. SDS gel electrophoresis: 10-20 ug of protein sample was loaded into each lane of a 10% SDS gel. Electrophoresis was conducted with 100 volt constant for 2 hours.
as §3, with “D.” for “4).”
E. Another SDS gel with same sample loading was stained with Coomassie Brilliant Blue (CBB) for protein staining.
F. Determination of Western blot band intensity: The band-images of Western blot were captured with a digital camera and the intensity of bands was determined using “Image J” software.

[4] = tested on: Human leukemia cells K562; experiment: Inhibition of cell cycling, K562, flow cytometry; type: cell-based; conditions: K562, three days
Procedure: • 1. Method: Cells: Human leukemia cells K562 cultured in RPMI1640 medium. • 2. Drug: compound from present application or Tig-S (1000x stock solution in DMSO). • 3. Start cells concentration: 500000 /ml. • 4. Cells were cultured with drug (0 - 20 ug/ml) for total of three days. • 5. Cells were harvested by centrifugation (136xg, 6 minutes); fixed with 70% ethanol and kept in -20° C. before staining. • 6. Staining: Fixed cells were stained with Propidium iodide/RNase A/0.1% Triton X-100 in PBS. • 7. Flow Cytometry Analysis was performed in Baylor Core Facility with a LSRII instrument. • 8. Analysis: Single cell was gated and cell count - FL2-Area histogram were plotted. • 9. Cell distribution in different cell-cycle phases (G0/G1, S, G2/M) was analyzed.

[5] = ES2 cells, Tig-R, 2 days, single experiments 2-5

Row | Compound | combined effect with anti-DR5 antibody ([1]; HepG2, Tig-R 5 or 7.5 ug/ml) | inhibition of HepG2 cells' growth ([1]; Tig-R alone 5 ug/ml, 2 days) | combined effect with anti-DR5 antibody ([2]; Capan, Tig-R 2.5 or 5 ug/ml) | % Inhibition Experimental ([2]; R 2.5 ug/ml alone) | % Inhibition Experimental ([2]; R 5 ug/ml alone) | increase of DR5 over DMSO control cells ([3]; ES2, Tig-R 10 ug/ml, 2 days (Experiment 46)) | increase of DR5 ([3]; ES2 cells, 10 ug/ml, 2 days (Experiment 42)) | DR5 band intensity, % of DMSO, Average (%) ([3]; ES2 cells, Tig-R, 2 days, average of 5 experiments) | DR5 Western blot band intensity (Image J) [3, 5] | DR5 band intensity, % of DMSO [3, 5] | concentration from which cells in G2/M phase decrease [4] | effect on cell cycle [4]
1 | 24,28-O-Tigloyl-3β,16α, 21β, 22a, 24β, 28-hexahydroxyolean-12-ene [Tig-R] | synergistic | 15-20% | synergistic | 20% | 29% | 61% | at least 2 folds | 161% | 25103 and 17941 and 17133 and 19157 | 185% and 200% and 148% and 113% |  | 
2 | CC=C(C)C(=O)OCC1(C)C(O)CCC2(C)C1CCC1(C)C2CC=C2C3CC(C)(C)C(OC(=O)C(C)=CC)C(O)C3(CO)C(O)CC21C (stereo not drawn) [Tig-S] |  |  |  |  |  |  |  |  |  |  | ≥ 0.6 µg/mL | arresting cells in the S-phase
